Common to all, as to test: Inhibition Assay
For test [1], the target named is T1, Beta-hexosaminidase subunit beta (Homo sapiens, UniProt P07686).
T1 sequence (P07686 whole entry): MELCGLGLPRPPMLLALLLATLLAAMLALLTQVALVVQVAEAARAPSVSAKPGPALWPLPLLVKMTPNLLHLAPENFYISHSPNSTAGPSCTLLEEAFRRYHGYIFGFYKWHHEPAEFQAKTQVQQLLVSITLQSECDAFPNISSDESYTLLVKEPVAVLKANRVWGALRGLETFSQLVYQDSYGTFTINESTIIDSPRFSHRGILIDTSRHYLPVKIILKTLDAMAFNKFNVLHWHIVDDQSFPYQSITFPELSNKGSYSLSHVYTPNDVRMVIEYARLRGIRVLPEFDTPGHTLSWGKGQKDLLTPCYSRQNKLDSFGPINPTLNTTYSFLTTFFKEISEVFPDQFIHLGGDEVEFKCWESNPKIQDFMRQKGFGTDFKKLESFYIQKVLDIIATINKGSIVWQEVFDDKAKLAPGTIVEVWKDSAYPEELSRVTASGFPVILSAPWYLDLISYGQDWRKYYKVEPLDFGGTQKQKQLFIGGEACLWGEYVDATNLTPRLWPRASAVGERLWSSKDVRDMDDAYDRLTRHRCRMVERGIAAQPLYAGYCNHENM
On the procedure: (§1) Hexosaminidase activity assay was measured by fluorometry, VersaFluor Fluorometer from Bio-Rad.

In test [2] the target is T2, Beta-hexosaminidase subunit beta (Homo sapiens, UniProt P07686).
T2 sequence (P07686 whole entry): T1 sequence (P07686 whole entry) with L62S
On the procedure:
as §1
This is another data set of the same source.

For test [3], the target named is T3, Beta-hexosaminidase subunit alpha (Homo sapiens, UniProt P06865).
T3 sequence (P06865 whole entry): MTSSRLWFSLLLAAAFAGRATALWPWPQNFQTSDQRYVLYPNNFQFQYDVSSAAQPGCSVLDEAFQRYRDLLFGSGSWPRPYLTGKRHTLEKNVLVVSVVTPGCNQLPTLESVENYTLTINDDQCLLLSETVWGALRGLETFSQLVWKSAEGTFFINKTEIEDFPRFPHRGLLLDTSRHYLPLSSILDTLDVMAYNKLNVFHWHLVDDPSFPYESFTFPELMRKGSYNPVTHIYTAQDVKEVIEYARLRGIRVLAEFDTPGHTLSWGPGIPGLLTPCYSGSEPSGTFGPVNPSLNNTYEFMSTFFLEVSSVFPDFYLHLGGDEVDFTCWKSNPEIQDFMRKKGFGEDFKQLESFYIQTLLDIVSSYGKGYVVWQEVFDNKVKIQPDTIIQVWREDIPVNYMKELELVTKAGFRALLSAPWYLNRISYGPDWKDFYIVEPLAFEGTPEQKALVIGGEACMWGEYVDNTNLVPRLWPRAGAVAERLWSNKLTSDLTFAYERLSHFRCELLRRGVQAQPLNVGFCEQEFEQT
The protocol:
as §1

Residue numbers refer to the chain shown, from its start.

`CC(=O)N[C@H]1CN[C@H](CO)[C@@H](O)[C@@H]1O` displayed a Ki in test [1] of 1200 nM. `CC(=O)N[C@@H]1N[C@H](CO)[C@@H](O)[C@@H]1O` [Iminocyclitol, 1] had a Ki in test [2] of 240 nM.

With `CC(=O)N[C@H]1[C@@H](O)[C@H](O)[C@@H](CO)N1C` [Iminocyclitol, 2], in test [2], the Ki is 65 nM. Compared with the last compound, the Ki is about 3.7-fold lower. The same measure, in the same setting: the result for `CC(=O)N[C@H]1N[C@H](CO)[C@@H](O)[C@@H]1O` [Iminocyclitol, 3] reads 40 nM; that for `CC(=O)N[C@@H]1[C@@H](O)[C@H](O)[C@@H](CO)N1C` [Iminocyclitol, 4], 24 nM.

`CC(=O)NC1CN(C)C(CO)C(O)C1O` (stereo not given) [Iminocyclitol, 6] displayed a Ki in test [2] of 860 nM. Take `CC(=O)N[C@@H]1[C@@H](O)[C@H](O)[C@@H](OS(=O)(=O)O)N1C` [Iminocyclitol, 8]: the figures for the Ki in test [2] and in test [3] were 5000 nM and 100 nM, respectively. For `CC1=NC2C(OC(OS(=O)(=O)O)C(O)C2O)S1` (stereo not given) [Iminocyclitol, 10] the same measures were 100000 nM and 10000 nM.

The record behind these values is BindingDB's records for doi:10.1016/S1074-5521(01)00045-X (The Scripps Research Institute, 2001).
